Several values for one entry are separate records, joined by “and”; a condition that tells them apart may be missing. Equal entries are not always repeated. Structures can show the parent of a compound that is named as a salt. Where two headings read alike, the source gives them in different places.
Key:
TbAQP2/HAPT1 = TbAQP2/HAPT1 (Trypanosoma brucei brucei, UniProt Q6ZXT3); assay: cell-based; assay type: cell-based
s427WT bloodstream forms = assay type: cell-based, Trypanosoma brucei brucei
[1] = Gibbs free energy of binding to HAPT
[2] = NI/NE with the concentration tested, read-out: HAPT Ki, AVG

Chain of TbAQP2/HAPT1 (Q6ZXT3 whole entry): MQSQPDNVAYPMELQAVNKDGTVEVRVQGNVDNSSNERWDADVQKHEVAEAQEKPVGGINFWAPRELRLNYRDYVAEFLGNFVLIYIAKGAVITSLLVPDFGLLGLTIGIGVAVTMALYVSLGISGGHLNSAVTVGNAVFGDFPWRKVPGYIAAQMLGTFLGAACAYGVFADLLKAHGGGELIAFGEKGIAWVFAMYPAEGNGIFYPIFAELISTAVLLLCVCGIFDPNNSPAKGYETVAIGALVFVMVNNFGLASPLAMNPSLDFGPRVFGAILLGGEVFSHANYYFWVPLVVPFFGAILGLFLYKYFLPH

Row | SMILES | δ(ΔG^0) PMD (TbAQP2/HAPT1) [kcal/mol] | Ki (TbAQP2/HAPT1; Ki) | ΔG0 (TbAQP2/HAPT1) [kcal/mol] | further results
1 | N=C(N)c1ccc(OCCCCCOc2ccc(C(=N)N)cc2C(N)=O)c(C(N)=O)c1 [RT-46] | >4.71 | > 100 µM | – | Ki (TbAQP2/HAPT1): no affinity at all
2 | N=C(N)c1ccc(OCCCCCCCOc2ccc(C(=N)N)cc2)cc1 [Heptamidine] | 0.741 | 0.123 ± 0.01 µM | -9.42 | –
3 | N=C(N)CCc1ccc(-c2ccc(-c3ccc(CCC(=N)N)cc3)o2)cc1 [DB1061, 3,3'-(furan-2,5-diylbis (4,1-phenylene)) dipropanimidamide dihydrochloride] | 4.04 | 32.3 ± 6 µM | -6.12 | –
4 | N=C(N)c1ccc(-c2cc3ccc(C(=N)N)cc3[nH]2)cc1 [DAPI] | – | – | -6.24 | δ(ΔG0) (TbAQP2/HAPT1): 3.92 kcal/mol; Ki (TbAQP2/HAPT1; read-out: HAPT Ki, AVG): 26.4 µM
5 | N=C(N)c1ccc(OCCCOc2ccc(C(=O)O)cc2)cc1 [RT-38] | >4.71 | > 100 µM | – | HAPT Ki, AVG (TbAQP2/HAPT1): NI, 100
6 | CON1CCN=C1Nc1ccc(CCc2ccc(NC3=NCCN3OC)cc2)cc1 [CRMI8] | 4.33 | 52.8 ± 12.7 µM | -5.83 | –
7 | N=C(N)c1ccc(O)cc1 [4-hydroxybenzamidine] | 6.72 | 2900 µM | -3.47 | Ki (TbAQP2/HAPT1; HAPT Ki, AVG): 2890 µM
8 | Cl.Cl.N=C(N)c1ccc(OCCCOc2ccc(C(=N)N)cc2)cc1.O.O [Propamidine, 4,4’-(propane-1,3-diylbis(oxy))dibenzimidamide dihydrochloride dihydrate] | 3.11 | 6.63 ± 1.4 µM | -7.07 | –
9 | N=C(N)c1ccc(-c2ccc(-c3ccc(-c4ccc(C(=N)N)cc4)o3)o2)cc1 [DB914] | 0.43 | 0.073 ± 0.013 µM | -9.73 | –
10 | N=C(N)c1ccc(/C=C/c2ccc(C(=N)N)cc2)cc1 [Stilbamidine] | 4.37 | 54.8 ± 3.2 µM | -5.81 | Ki (TbAQP2/HAPT1; HAPT Ki, AVG): 54.8 µM
11 | COc1cc(/C=C/C(=O)CC(=O)/C=C/c2ccc(O)c(OC)c2)ccc1O [curcumin] | – | – | -4.64 | Ki (TbAQP2/HAPT1): failed to inhibit; δ(ΔG0) (TbAQP2/HAPT1): 5.54 kcal/mol; Ki (TbAQP2/HAPT1; HAPT Ki, AVG): 398 µM
12 | N=C(N)c1cccc(OCCCCCOc2cccc(C(=N)N)c2)c1 [Meta-pentamidine RT40] | – | – | -5.71 | δ(ΔG0) (TbAQP2/HAPT1): 4.45 kcal/mol; Ki (TbAQP2/HAPT1; HAPT Ki, AVG): 64.2 µM
13 | COc1ccc(-c2ccc(-c3ccc(C(=N)N)cc3)o2)cc1 [DB607, 4-(5-(4-methoxyphenyl)furan-2-yl) benzimidamide hydrochloride] | 3.7 | 18.1 ± 1.9 µM | -6.48 | –
14 | N=C(N)c1ccc(OCCCCCCCOc2ccc(C(=N)N)cc2)cc1 [Chainlength 7] | – | – | – | Ki (TbAQP2/HAPT1; Ki value, Mean): 0.125 µM
15 | Cn1c(-c2ccc(C(=N)N)cc2)ccc1-c1ccc(C(=N)N)cc1 [DB320] | 4.52 | 71.3 ± 12.1 µM | -5.66 | –
16 | O=c1ccc2[n+]([O-])c3ccc(O)cc3oc-2c1 [resazurin] | – | – | -5.19 | δ(ΔG0) (TbAQP2/HAPT1): 4.97 kcal/mol; Ki (TbAQP2/HAPT1; HAPT Ki, AVG): 155 µM
17 | N=C(N)c1ccc(OCCCCCCOc2ccc(C(=N)N)cc2)cc1 [Chainlength 6] | – | – | – | Ki (TbAQP2/HAPT1; Ki value, Mean): 0.059 µM
18 | CC(C)[C@@H]1NC(=O)[C@H](C)OC(=O)[C@@H](C(C)C)NC(=O)[C@@H](C(C)C)OC(=O)[C@H](C(C)C)NC(=O)[C@H](C)OC(=O)[C@@H](C(C)C)NC(=O)[C@@H](C(C)C)OC(=O)[C@H](C(C)C)NC(=O)[C@H](C)OC(=O)[C@@H](C(C)C)NC(=O)[C@@H](C(C)C)OC1=O [valinomycin] | – | – | – | pentamidine uptake (s427WT bloodstream forms; valinomycin 0.3, AVG): 106.4 percentage of the uninhibited control; pentamidine uptake (s427WT bloodstream forms; valinomycin 0.3, single repeats): 108.9 percentage of the uninhibited control and 103.8 percentage of the uninhibited control; pentamidine uptake (s427WT bloodstream forms; valinomycin 1, AVG): 91.0 percentage of the uninhibited control; pentamidine uptake (s427WT bloodstream forms; valinomycin 1, single repeats): 97.7 percentage of the uninhibited control and 84.2 percentage of the uninhibited control; pentamidine uptake (s427WT bloodstream forms; valinomycin 10, AVG): 80.1 percentage of the uninhibited control; pentamidine uptake (s427WT bloodstream forms; valinomycin 10, single repeats): 86.7 percentage of the uninhibited control and 73.5 percentage of the uninhibited control
19 | N=C(N)c1ccc(OCCCCCOc2ccc(C(=N)N)nc2)cn1 [RT-53] | >5.26 | > 250 µM | – | HAPT Ki, AVG (TbAQP2/HAPT1): NI, 250; Ki (TbAQP2/HAPT1): completely inactive; δ(ΔG0) (TbAQP2/HAPT1): >5.26 kcal/mol
20 | N=C(N)c1ccc(OCCOCCOc2ccc(C(=N)N)cc2)cc1 [DB1699] | 3.66 | 16.6 ± 2.1 µM | -6.52 | –
21 | N=C(N)c1ccc(OCCCCOc2ccc(C(=N)N)cc2)cc1 [Chainlength 4] | – | – | – | Ki (TbAQP2/HAPT1; Ki value, Mean): 3.91 µM
22 | N=C(N)c1ccc(OCCCCOc2ccc(C(=N)N)cc2)cc1 [Butamidine, 4,4’-(Butane-l ,4-diylbis(oxy))dibenzimiamide dihydrochloride dihydrate] | 2.8 | 3.87 ± 1.38 µM | -7.39 | –

Row | SMILES | δ(ΔG^0) PMD (TbAQP2/HAPT1) [kcal/mol] | Ki (TbAQP2/HAPT1; Ki) | ΔG0 (TbAQP2/HAPT1) [kcal/mol] | further results
23 | N=C(N)c1ccc(OCCCCCCCCOc2ccc(C(=N)N)cc2)cc1 [Octamidine] | 2.44 | 2.16 ± 0.48 µM | -7.72 | –
24 | Cl.Cl.c1cc(-c2ccc(-c3ccc(CCC4=NCCN4)cc3)o2)ccc1CCC1=NCCN1 [DB1062, 2,5-bis(4-(2-(4,5-dihydro-1H-imidazol-2-yl)ethyl)phenyl) furan dihydrochloride] | 4.4 | 59.6 ± 11.2 µM | -5.76 | –
25 | N=C(N)c1ccc(-c2ccc(-c3ccc(C(=N)N)nc3)o2)cn1 [DB994] | 5.02 | 167 ± 20 µM | -5.16 | –
26 | N=C(N)c1ccc(-c2csc(-c3ccc(C(=N)N)cc3)n2)cc1 [ER1004, 4,4'-(thiazole-2,4-diyl)dibenzimidamide] | 4.49 | 68.7 ± 16 µM | -5.69 | –
27 | N=C(N)c1ccc(-c2csc(-c3ccc(C(=N)N)cc3)c2)cc1 [DB1077, 4,4'-(thiophene-2,4-diyl) dibenzimidamide dihydrochloride] | 3.54 | 13.8 ± 3.1 µM | -6.62 | –
28 | N=C(N)c1ccc(S(=O)(=O)CCCCCS(=O)(=O)c2ccc(C(=N)N)cc2)cc1 [RT-49] | >4.95 | > 150 µM | – | Ki (TbAQP2/HAPT1): no binding affinity; δ(ΔG0) (TbAQP2/HAPT1): >4.95 kcal/mol
29 | N=C(N)c1ccc(OCCCCCOc2ccc(C(=N)N)cc2)cc1 [Chainlength 5] | – | – | – | Ki (TbAQP2/HAPT1; Ki value, Mean): 0.0364 µM
30 | N=C(N)c1ccc(OCCCCCCOc2ccc(C(=N)N)cc2)cc1 [Hexamidine] | 0.311 | 0.058 ± 0.011 µM | -9.87 | –
31 | N=C(N)c1ccc(-c2ccc(-c3ccc(C(=N)N)cn3)o2)nc1 [DB829] | 4.16 | 39.9 ± 8 µM | -6 | –
32 | Cn1c(-c2ccc(-c3ccc(C(=N)N)cc3)o2)nc2ccccc21 [DB960, 4-(5-(1-methyl-1H-benzo[d]imidazol-2-yl)furan-2-yl) benzimidamide dihydrochloride] | 3.66 | 16.6 ± 3.5 µM | -6.52 | –
33 | N=C(N)Nc1ccc(-c2ccc(-c3ccc(NC(=N)N)cc3)s2)cc1 [DB686] | 1.24 | 0.29 ± 0.11 µM | -8.91 | –
34 | Cn1c([N+](=O)[O-])cnc1-c1nnc(N)s1 [megazol] | – | – | – | HAPT Ki, AVG (TbAQP2/HAPT1): NE, 250; Ki (TbAQP2/HAPT1): failed to inhibit
35 | N=C(N)c1ccc(OCCCCCCCCOc2ccc(C(=N)N)cc2)cc1 [Chainlength 8] | – | – | – | Ki (TbAQP2/HAPT1; Ki value, Mean): 2.2 µM
36 | Cl.Cl.N=C(N)c1ccc(OCCOc2ccc(C(=N)N)cc2)cc1.O.O [Ethamidine, 4,4'-(ethane-1,2-diylbis(oxy))dibenzimidamide dihydrochloride dihydrate] | >4.71 | > 100 µM | – | δ(ΔG0) (TbAQP2/HAPT1): >4.71 kcal/mol
37 | Cl.N=C(N)c1ccc(OCCCCOc2ccccc2)cc1.O [CHI/1/69/1, 4-(4-Phenoxybutoxy)benzimidamide hydrochloride hydrate] | 2.49 | 2.33 µM and 2.3 µM | -7.7 | –
38 | N=C(N)NCCCCCCCCCCN=C(N)N.O=S(=O)(O)O [Synthalin sulphate] | – | – | – | ΔG0 (TbAQP2/HAPT1; [1]): -4.88 kcal/mol; Ki (TbAQP2/HAPT1; [2]): 270 µM; δ(ΔG0) (TbAQP2/HAPT1; relative to pentamidine (0)): 5.31 kcal/mol
39 | N=C(N)CCc1ccc(-c2ccc(-c3ccc(CCC(=N)N)cc3)s2)cc1 [DB1063, 3,3'-(thiophene-2,5-diylbis(4,1-phenylene)) dipropanimidamide dihydrochloride] | 1.43 | 0.4 ± 0.1 µM | -8.72 | –
40 | N=C(N)c1ccc(OCCCOc2ccc(C(=N)N)cc2)cc1 [Chainlength 3] | – | – | – | Ki (TbAQP2/HAPT1; Ki value, Mean): 7.2 µM
41 | N=C(N)c1ccc(-c2ccc(-c3ccc(C(=N)N)cn3)o2)cc1 [DB820] | – | – | – | ΔG0 (TbAQP2/HAPT1; [1]): -5.95 kcal/mol; Ki (TbAQP2/HAPT1; [2]): 43.4 µM; δ(ΔG0) (TbAQP2/HAPT1; relative to pentamidine (0)): 4.23 kcal/mol
42 | c1cc(NC2=NCCN2)ccc1CCc1ccc(NC2=NCCN2)cc1 [FR39] | 4.21 | 41.7 ± 15.2 µM | -5.98 | –
43 | O=C(CCc1ccc(O)cc1)c1c(O)cc(O)cc1O [Phloretin] | – | 1.76 µM | -7.84 | δ(ΔG0) (TbAQP2/HAPT1): 2.32 kcal/mol
